Usually IC50 stands for the concentration needed to halve the response being measured. Low values mean higher potency, high ones lower potency.

In the test the target is T1, intracellular domain of human Tie2 (GST fusion protein) (Homo sapiens, UniProt Q02763).
T1 construct: intracellular domain of human Tie2 (amino acids 776-1124); made in house; host or cells: Baculovirus-infected insect cells (Hi5)
T1 sequence (Q02763 776-1124): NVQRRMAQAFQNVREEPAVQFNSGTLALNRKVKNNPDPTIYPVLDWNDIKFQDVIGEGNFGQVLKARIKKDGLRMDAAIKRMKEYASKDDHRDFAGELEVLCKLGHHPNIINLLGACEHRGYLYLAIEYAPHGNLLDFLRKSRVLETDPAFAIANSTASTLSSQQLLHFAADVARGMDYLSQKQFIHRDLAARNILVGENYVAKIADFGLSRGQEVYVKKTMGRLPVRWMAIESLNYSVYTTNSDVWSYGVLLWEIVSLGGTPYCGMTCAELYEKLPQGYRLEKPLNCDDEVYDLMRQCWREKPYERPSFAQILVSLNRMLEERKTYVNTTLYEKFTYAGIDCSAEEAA
Description: Tie2 kinase assay (Tie2-TR-FRET). It is filed as biochemical. As to conditions: ATP concentration 1 mM, in some cases means of several independent determinations. The method, then: The Tie2-inhibitory activity of the substances according to the invention was determined with the aid of one of the Tie2-TR-FRET assays described in the sections below at an ATP concentration of 1 mM (TR-FRET=Time-Resolved Fluorescence Resonance Energy Transfer):
The enzyme used was a recombinant fusion protein of glutathione S-transferase (GST) and the intracellular domain of human Tie2 (amino acids 776-1124) which was expressed in Baculovirus-infected insect cells (Hi5) and was purified by affinity chromatography on glutathione-Sepharose. Alternatively, it is also possible to use commercially available GST-His6-Tie2 fusion protein (ProQinase GmbH, Freiburg im Breisgau, Germany). The substrate used for the kinase reaction was the biotinylated peptide biotin-Ahx-[…] (C-terminus in amide form) which is commercially available (for example from Biosyntan, Berlin, Germany).
For the assay, 50 nl of a 100-fold concentrated solution of the respective test substance in DMSO were pipetted into a black low-volume 384-well microtitre plate (Greiner Bio-One, Frickenhausen, Germany) 2 μl of a solution of the Tie2 fusion protein in assay buffer [50 mM HEPES/HCl pH 7, 10 mM MgCl2, 2.5 mM MnCl2, 1 mM dithiothreitol, 0.01% (v/v) Nonidet P-40, 0.1% (w/v) bovine serum albumin (BSA), 1× Complete EDTA-free protease inhibitor mixture (Roche)] were added, and the mixture was incubated for 15 min to allow pre-binding of the substance to the enzyme prior to the kinase reaction. The kinase reaction was then started by adding 3 μl of a solution of adenosine triphosphate (ATP, 1.67 mM→final concentration in 5 μl assay volume=1 mM) and substrate (1.67 μM→final concentration in 5 μl assay volume=1 μM) in assay buffer, and the resulting mixture was incubated for a reaction time of 60 min at 22° C. The concentration of the Tie2 fusion protein was adapted to the respective activity of the enzyme and adjusted such that the assay was carried out in the linear range. Typical concentrations were in the range of 30 ng/ml.
The reaction was stopped by addition of 5 μl of a solution of TR-FRET detection reagents [200 nM streptavidin-XL665 and 2 nM PT66-Eu chelate, a europium chelate-labelled anti-phosphotyrosine antibody (Perkin-Elmer); alternatively, it is also possible to use PT66-Tb cryptate (Cisbio Bioassays, Codolet, France)] in aqueous EDTA solution[90 mM EDTA, 0.28% (w/v) bovine serum albumin (BSA) in 50 mM HEPES pH 7.5]. The resulting mixture was incubated at 22° C. for 1 h to allow formation of the complex of the biotinylated phosphorylated substrate and the detection reagents. The amount of phosphorylated substrate was then determined by measuring the resonance energy transfer from PT66-Eu chelate to streptavidin-XL665. To this end, the fluorescence emissions at 620 nm and 665 nm after excitation at 350 nm were measured in a TR-FRET measuring instrument (for example Viewlux, Perkin-Elmer). The ratio of the emissions at 665 nm and at 620 nm was taken as a measure of the amount of phosphorylated substrate.
Usually, the test substance in question was tested on the same microtitre plate at […] different concentrations in the range from 20 μM to 0.073 nM (for example at 20 μM, 5.7 μM, 1.6 μM, 0.47 μM, 0.13 μM, 38 nM, 11 nM, 3.1 nM, 0.89 nM, 0.25 nM and 0.073 nM) in duplicate for each concentration. The dilution series were prepared prior to the assay at the stage of the 100-fold concentrated solution by serial dilution (the exact concentrations may vary depending on the pipettors used in each case). IC50 values were calculated using a 4-parameter fit, with the aid of inhouse software.
Table 1 below lists the IC50 values from this assay for individual working examples (in some cases as means of several independent individual determinations): […]
`Cc1ccc(NC(=O)c2cc(N3CCCC3)ccc2Cl)cc1-n1ccn2nc(-c3cccnc3)cc12` [Example 57, 2-Chloro-N-{4-methyl-3-[6-(pyridin-3-yl)-1H-imidazo[1,2-b]pyrazol-1-yl]phenyl}-5-(pyrrolidin-1-yl)benzamide] returned a half-inhibitory concentration (IC50) of 995 nM. The compound `Cc1ccc(NC(=O)c2ccc(Cl)c(N3CCCCC3)c2)cc1-n1ccn2nc(-c3cccnc3)cc12` [Example 58, 4-Chloro-N-{4-methyl-3-[6-(pyridin-3-yl)-1H-imidazo[1,2-b]pyrazol-1-yl]phenyl}-3-(piperidin-1-yl)benzamide] returned an IC50 of 330 nM. As for `Cc1ccc(NC(=O)c2cccc(N(C)C)c2)cc1-n1ccn2nc(-c3cccnc3)cc12` [Example 59, 3-(Dimethylamino)-N-{4-methyl-3-[6-(pyridin-3-yl)-1H-imidazo[1,2-b]pyrazol-1-yl]phenyl}-benzamide], the figure is 600 nM; as for `Cc1ccc(NC(=O)c2cccc(OC(C)C)c2)cc1-n1ccn2nc(-c3cccnc3)cc12` [Example 60, N-{4-Methyl-3-[6-(pyridin-3-yl)-1H-imidazo[1,2-b]pyrazol-1-yl]phenyl}-3-(propan-2-yloxy)-benzamide], 125 nM. The same measure for `CCCOc1cccc(C(=O)Nc2ccc(C)c(-n3ccn4nc(-c5cccnc5)cc34)c2)c1` [Example 61, N-{4-Methyl-3-[6-(pyridin-3-yl)-1H-imidazo[1,2-b]pyrazol-1-yl]phenyl}-3-propoxybenzamide]: 260 nM.

Consider `Cc1ccc(NC(=O)c2cccc(OCC(C)C)c2)cc1-n1ccn2nc(-c3cccnc3)cc12` [Example 62, 3-(2-Methylpropoxy)-N-{4-methyl-3-[6-(pyridin-3-yl)-1H-imidazo[1,2-b]pyrazol-1-yl]phenyl}-benzamide], for which the half-maximal inhibitory concentration (IC50) is 500 nM.

In the case of `COc1cc(OC)cc(C(=O)Nc2ccc(C)c(-n3ccn4nc(-c5cccnc5)cc34)c2)c1` [Example 63, 3,5-Dimethoxy-N-{4-methyl-3-[6-(pyridin-3-yl)-1H-imidazo[1,2-b]pyrazol-1-yl]phenyl}benzamide], 770 nM corresponded to half-maximal inhibition (IC50). The same measure for `Cc1ccc(NC(=O)c2ccnc(C(C)(C)C)c2)cc1-n1ccn2nc(-c3cccnc3)cc12` [Example 64, 2-tert-Butyl-N-{4-methyl-3-[6-(pyridin-3-yl)-1H-imidazo[1,2-b]pyrazol-1-yl]phenyl}isonicotinamide]: 41 nM.

Compound `Cc1ccc(NC(=O)c2cc(Cl)nc(C(C)(C)C)c2)cc1-n1ccn2nc(-c3cccnc3)cc12` [Example 65, 2-tert-Butyl-6-chloro-N-{4-methyl-3-[6-(pyridin-3-yl)-1H-imidazo[1,2-b]pyrazol-1-yl]phenyl}isonicotinamide] registered an IC50 of 57 nM. In turn, `Cc1ccc(NC(=O)c2ccnc(N3CCCC3)c2)cc1-n1ccn2nc(-c3cccnc3)cc12` [Example 67, N-{4-Methyl-3-[6-(pyridin-3-yl)-1H-imidazo[1,2-b]pyrazol-1-yl]phenyl}-2-(pyrrolidin-1-yl)-pyridine-4-carboxamide] yielded a 50% inhibitory concentration (IC50) of 57 nM. This counts as double-digit nanomolar. As for `Cc1ccc(NC(=O)c2ccnc(N3CCCCC3)c2)cc1-n1ccn2nc(-c3cccnc3)cc12` [Example 68, N-{4-Methyl-3-[6-(pyridin-3-yl)-1H-imidazo[1,2-b]pyrazol-1-yl]phenyl}-2-(piperidin-1-yl)-pyridine-4-carboxamide], the figure is 71 nM; as for `Cc1ccc(NC(=O)c2ccnc(N3CCOCC3)c2)cc1-n1ccn2nc(-c3cccnc3)cc12` [Example 69, N-{4-Methyl-3-[6-(pyridin-3-yl)-1H-imidazo[1,2-b]pyrazol-1-yl]phenyl}-2-(morpholin-4-yl)-pyridine-4-carboxamide], 580 nM; as for `O=C(Nc1ccc(F)c(-n2ccn3nc(-c4cccnc4)cc23)c1)c1cccc(S(F)(F)(F)(F)F)c1` [Example 70, N-{4-Fluoro-5-[6-(pyridin-3-yl)-1H-imidazo[1,2-b]pyrazol-1-yl]phenyl}-3-(pentafluoro-λ^6-sulphanyl)benzamide], 105 nM.

Take `N#Cc1cc(C(=O)Nc2ccc(F)c(-n3ccn4nc(-c5cccnc5)cc34)c2)cc(S(F)(F)(F)(F)F)c1` [Example 71, 3-Cyano-N-{4-fluoro-5-[6-(pyridin-3-yl)-1H-imidazo[1,2-b]pyrazol-1-yl]phenyl}-3-(pentafluoro-λ^6-sulphanyl)benzamide]: 34 nM corresponded to half-maximal inhibition (IC50). The same measure for `COc1ccc(NC(=O)c2cccc(S(F)(F)(F)(F)F)c2)cc1-n1ccn2nc(-c3cccnc3)cc12` [Example 72, N-{4-Methoxy-3-[6-(pyridin-3-yl)-1H-imidazo[1,2-b]pyrazol-1-yl]phenyl}-3-(pentafluoro-λ^6-sulphanyl)benzamide]: 350 nM; for `Cc1ccc(-n2ccn3nc(-c4cccnc4)cc23)cc1NC(=O)c1cccc(S(F)(F)(F)(F)F)c1` [Example 76, N-{2-Methyl-5-[6-(pyridin-3-yl)-1H-imidazo[1,2-b]pyrazol-1-yl]phenyl}-3-(pentafluoro-λ^6-sulphanyl)benzamide]: 82 nM. The same measure for `Cc1ccc(-n2ccn3nc(-c4cccnc4)cc23)cc1NC(=O)c1cc(Br)cc(C(C)(C)C)c1` [Example 78]: 115 nM; for `Cc1ccc(-n2ccn3nc(-c4cccnc4)cc23)cc1NC(=O)c1cc(C#N)cc(C(C)(C)C)c1` [Example 79]: 26 nM; for `Cc1c(NC(=O)c2cc(C#N)cc(S(F)(F)(F)(F)F)c2)cccc1-n1ccn2nc(-c3cccnc3)cc12` [Example 80, 3-Cyano-N-{2-methyl-3-[6-(pyridin-3-yl)-1H-imidazo[1,2-b]pyrazol-1-yl]phenyl}-5-(pentafluoro-λ^6-sulphanyl)benzamide]: 725 nM. The same measure for `N#Cc1cc(C(=O)Nc2cccc(-n3ccn4nc(-c5cccnc5)cc34)c2F)cc(S(F)(F)(F)(F)F)c1` [Example 81, 3-Cyano-N-{2-fluoro-3-[6-(pyridin-3-yl)-1H-imidazo[1,2-b]pyrazol-1-yl]phenyl}-5-(pentafluoro-λ^6-sulphanyl)benzamide]: 435 nM. For `O=C(Nc1cccc(-n2ccn3nc(-c4cccnc4)cc23)c1O)c1cccc(S(F)(F)(F)(F)F)c1` [Example 82, N-{2-Hydroxy-3-[6-(pyridin-3-yl)-1H-imidazo[1,2-b]pyrazol-1-yl]phenyl}-3-(pentafluoro-λ^6-sulphanyl)benzamide], the 50% inhibitory concentration (IC50) came out at 250 nM. The same measure for `N#Cc1cc(C(=O)Nc2cccc(-n3ccn4nc(-c5cccnc5)cc34)c2O)cc(S(F)(F)(F)(F)F)c1` [Example 83, 3-Cyano-N-{2-hydroxy-3-[6-(pyridin-3-yl)-1H-imidazo[1,2-b]pyrazol-1-yl]phenyl}-5-(pentafluoro-λ^6-sulphanyl)benzamide]: 110 nM; for `Cc1ccc(NC(=O)c2cccc(S(F)(F)(F)(F)F)c2)cc1-n1ccn2nc(-c3cnccn3)cc12` [Example 84, N-{4-Methyl-3-[6-(pyrazin-2-yl)-1H-imidazo[1,2-b]pyrazol-1-yl]phenyl}-3-(pentafluoro-λ^6-sulphanyl)benzamide]: 220 nM. `Cc1cc(C)c(-n2ccn3nc(-c4cn[nH]c4)cc23)cc1NC(=O)c1cc(C#N)cc(S(F)(F)(F)(F)F)c1` [Example 86, 3-Cyano-N-{2,4-dimethyl-5-[6-(1H-pyrazol-4-yl)-1H-imidazo[1,2-b]pyrazol-1-yl]phenyl}-5-(pentafluoro-λ^6-sulphanyl)benzamide] had an IC50 of 1.1 nM.

For the origin of these results see patent US20150005288A1, “SUBSTITUTED PHENYLIMIDAZOPYRAZOLES AND USE THEREOF” (Bayer Intellectual Property GmbH, priority 2012, published 2015).
